# Assay results taken from ChEMBL document CHEMBL6071135, “New resorcylic acid derivatives of Lysimachia tengyuehensis against MRSA and VRE by interfering with bacterial metabolic imbalance” (Eur J Med Chem, 2024).
# Activity calls are given as the source filed them. The calls are words filed in the database; no cut-off is given here.
# Columns and labels:
# Enterococcus faecalis [1] = test: Antimicrobial activity against vancomycin-resistant Enterococcus faecalis ATCC51299 assessed as reduction in bacterial growth in presence of phosphatidylglycerol by checkerboard broth dilution method; format: functional, organism-based
# Cell membrane [2] = test: Induction of cell membrane damage in vancomycin-resistant Enterococcus faecalis ATCC51299 assessed as increase in nucleic acid leakage at 4 times MIC incubated for 2 hrs by absorbance based analysis; format: subcellular
# Enterococcus faecalis [3] = test: Induction of morphological changes in biofilm of vancomycin-resistant Enterococcus faecalis ATCC51299 assessed as decrease in biofilm density at 1 to 4 times MIC incubated for 24 hrs by DAPI staining based fluorescence microscopy analysis; format: functional, organism-based
# Staphylococcus aureus [4] = test: Antibacterial activity against methicillin-resistant Staphylococcus aureus at sub-MIC concentration measured after 24 hrs by CLSI based broth microdilution method; format: functional, organism-based
# Staphylococcus aureus [5] = test: Induction of morphological changes in methicillin-resistant Staphylococcus aureus assessed as appearance of died bacterial surface at 4 times MIC measured for 5 hrs by field emission scanning electron microscopy based analysis; format: functional, organism-based
# Cell membrane [6] = test: Induction of cell membrane depolarization in vancomycin-resistant Enterococcus faecalis ATCC51299 assessed as reduction in fluorescence intensity measured for 30 mins by DiSC3(5) dye-based fluorescence assay; format: subcellular
# Enterococcus faecalis [7] = test: Antibacterial activity against vancomycin-resistant Enterococcus faecalis ATCC51299 at sub-MIC concentration measured after 24 hrs by CLSI based broth microdilution method; format: functional, organism-based
# Staphylococcus aureus [8] = test: Bactericidal activity against methicillin-resistant Staphylococcus aureus assessed as reduction in number of bacteria at 1 time MIC measured within 40 mins by time-kill assay; format: functional, organism-based
# RAW264.7 = test: Cytotoxicity against mouse RAW264.7 cells at 16 ug/ml incubated for 24 hrs by MTT assay; format: toxicity, cell-based; settings: raw264.7, 24 h, dose 16 µg/ml
# Staphylococcus aureus [9] = test: Antimicrobial activity against methicillin-resistant Staphylococcus aureus assessed as increase in cell membrane fluidity at upto 4 times MIC incubated for 35 mins by Laurdan-GP dye based spectramax gemini XPS microplate reader analysis; format: functional, organism-based
# Enterococcus faecalis [10] = test: Antimicrobial activity against vancomycin-resistant Enterococcus faecalis ATCC51299 assessed as reduction in bacterial growth in presence of peptidoglycan by checkerboard broth dilution method; format: functional, organism-based
# Cell membrane [11] = test: Induction of cell membrane damage in methicillin-resistant Staphylococcus aureus assessed as increase in nucleic acid leakage at 4 times MIC incubated for 2 hrs by absorbance based analysis; format: subcellular
# Staphylococcus aureus [12] = test: Induction of morphological changes in biofilm of methicillin-resistant Staphylococcus aureus assessed as appearance of broken biofilm at 1 to 4 times MIC incubated for 24 hrs by DAPI staining based fluorescence microscopy analysis; format: functional, organism-based
# Enterococcus faecalis [13] = test: Induction of morphological changes in biofilm of vancomycin-resistant Enterococcus faecalis ATCC51299 assessed as appearance of destroyed biofilm at 1 to 4 times MIC incubated for 24 hrs by DAPI staining based fluorescence microscopy analysis; format: functional, organism-based
# Cell membrane [14] = test: Induction of cell membrane damage in vancomycin-resistant Enterococcus faecalis ATCC51299 assessed as increase in ROS accumulation at 4 times MIC incubated for 1 hr by fluorescence based analysis; format: subcellular
# Enterococcus faecalis [15] = test: Induction of morphological changes in vancomycin-resistant Enterococcus faecalis ATCC51299 assessed as appearance of ruptured bacterial surface at 4 times MIC measured for 5 hrs by field emission scanning electron microscopy based analysis; format: functional, organism-based
# Staphylococcus aureus [16] = test: Induction of morphological changes in methicillin-resistant Staphylococcus aureus assessed as appearance of flocculated bacterial surface at 4 times MIC measured for 5 hrs by field emission scanning electron microscopy based analysis; format: functional, organism-based
# Staphylococcus aureus [17] = test: Antimicrobial activity against methicillin-resistant Staphylococcus aureus assessed as reduction in bacterial growth in presence of phosphatidylethanolamine by checkerboard broth dilution method; format: functional, organism-based
# Staphylococcus aureus [18] = test: Induction of morphological changes in methicillin-resistant Staphylococcus aureus assessed as appearance of clustered bacterial surface at 4 times MIC measured for 5 hrs by field emission scanning electron microscopy based analysis; format: functional, organism-based
# Enterococcus faecalis [19] = test: Induction of morphological changes in vancomycin-resistant Enterococcus faecalis ATCC51299 assessed as appearance of flocculated bacterial surface at 4 times MIC measured for 5 hrs by field emission scanning electron microscopy based analysis; format: functional, organism-based
# Enterococcus faecalis [20] = test: Antibiofilm activity in vancomycin-resistant Enterococcus faecalis ATCC51299 assessed as increase in biofilm destruction incubated for 24 hrs by crystal violet staining based analysis; format: functional, organism-based
# Enterococcus faecalis [21] = test: Antimicrobial activity against vancomycin-resistant Enterococcus faecalis ATCC51299 assessed as reduction in bacterial growth in presence of phosphatidylethanolamine by checkerboard broth dilution method; format: functional, organism-based
# Staphylococcus aureus [22] = test: Induction of morphological changes in biofilm of methicillin-resistant Staphylococcus aureus assessed as appearance of destroyed biofilm at 1 to 4 times MIC incubated for 24 hrs by DAPI staining based fluorescence microscopy analysis; format: functional, organism-based
# Enterococcus faecalis [23] = test: Induction of morphological changes in vancomycin-resistant Enterococcus faecalis ATCC51299 assessed as appearance of clustered bacterial surface at 4 times MIC measured for 5 hrs by field emission scanning electron microscopy based analysis; format: functional, organism-based
# Staphylococcus aureus [24] = test: Antimicrobial activity against methicillin-resistant Staphylococcus aureus assessed as reduction in bacterial growth in presence of peptidoglycan by checkerboard broth dilution method; format: functional, organism-based
# Enterococcus faecalis [25] = test: Bactericidal activity against vancomycin-resistant Enterococcus faecalis ATCC51299 assessed as reduction in number of bacteria at 2 times MIC measured within 15 mins by time-kill assay; format: functional, organism-based
# Staphylococcus aureus [26] = test: Antimicrobial activity against methicillin-resistant Staphylococcus aureus assessed as reduction in bacterial growth in presence of phosphatidylglycerol by checkerboard broth dilution method; format: functional, organism-based
# Enterococcus faecalis [27] = test: Bactericidal activity against vancomycin-resistant Enterococcus faecalis ATCC51299 measured after 24 hrs by CLSI based broth microdilution method; format: functional
# Cell membrane [28] = test: Induction of cell membrane depolarization in methicillin-resistant Staphylococcus aureus assessed as reduction in fluorescence intensity measured for 30 mins by DiSC3(5) dye-based fluorescence assay; format: subcellular
# Enterococcus faecalis [29] = test: Induction of morphological changes in vancomycin-resistant Enterococcus faecalis ATCC51299 assessed as appearance of died bacterial surface at 4 times MIC measured for 5 hrs by field emission scanning electron microscopy based analysis; format: functional, organism-based
# Staphylococcus aureus [30] = test: Antibacterial activity against methicillin-resistant Staphylococcus aureus measured after 20 passages by broth microdilution method; format: functional, organism-based
# Enterococcus faecalis [31] = test: Antibacterial activity against vancomycin-resistant Enterococcus faecalis ATCC51299 measured after 24 hrs by CLSI based broth microdilution method; format: functional
# Cell membrane [32] = test: Induction of cell membrane damage in methicillin-resistant Staphylococcus aureus assessed as increase in ROS accumulation at 4 times MIC incubated for 1 hr by fluorescence based analysis; format: subcellular
# Staphylococcus aureus [33] = test: Induction of morphological changes in biofilm of methicillin-resistant Staphylococcus aureus assessed as decrease in biofilm density at 1 to 4 times MIC incubated for 24 hrs by DAPI staining based fluorescence microscopy analysis; format: functional, organism-based
# Enterococcus faecalis [34] = test: Induction of morphological changes in biofilm of vancomycin-resistant Enterococcus faecalis ATCC51299 assessed as appearance of broken biofilm at 1 to 4 times MIC incubated for 24 hrs by DAPI staining based fluorescence microscopy analysis; format: functional, organism-based
# Staphylococcus aureus [35] = test: Induction of morphological changes in methicillin-resistant Staphylococcus aureus assessed as appearance of ruptured bacterial surface at 4 times MIC measured for 5 hrs by field emission scanning electron microscopy based analysis; format: functional, organism-based
SMILES,Activity (Enterococcus faecalis [1]),Activity (Cell membrane [2]),Activity (Enterococcus faecalis [3]),Activity (Staphylococcus aureus [4]),Activity (Staphylococcus aureus [5]),Activity (Cell membrane [6]),Activity (Enterococcus faecalis [7]),Activity (Staphylococcus aureus [8]),Activity (RAW264.7),Activity (Staphylococcus aureus [9]),Activity (Enterococcus faecalis [10]),Activity (Cell membrane [11]),Activity (Staphylococcus aureus [12]),Activity (Enterococcus faecalis [13]),Activity (Cell membrane [14]),Activity (Enterococcus faecalis [15]),Activity (Staphylococcus aureus [16]),Activity (Staphylococcus aureus [17]),Activity (Staphylococcus aureus [18]),Activity (Enterococcus faecalis [19]),other results
C=CCCCCCCCCCCCc1cc(O)cc(O)c1,Active,Active,Active,Active,Active,Active,Active,Active,Non-Toxic,Active,inactive,Active,Active,Active,Active,Active,Active,inactive,Active,Active,Activity (Enterococcus faecalis [20]): Dose-Dependent Effect; Activity (Enterococcus faecalis [21]): inactive; Activity (Staphylococcus aureus [22]): Active; Activity (Enterococcus faecalis [23]): Active; Activity (Staphylococcus aureus [24]): Active; Activity (Enterococcus faecalis [25]): Active; Activity (Staphylococcus aureus [26]): inactive; MBC (Enterococcus faecalis [27]): 4 µg/mL; Activity (Cell membrane [28]): Active; Activity (Enterococcus faecalis [29]): Active; Activity (Staphylococcus aureus [30]): inactive; MIC (Enterococcus faecalis [31]): 4 µg/mL; Activity (Cell membrane [32]): Active; Activity (Staphylococcus aureus [33]): Active; Activity (Enterococcus faecalis [34]): Active; Activity (Staphylococcus aureus [35]): Active
C=CCCCCCCCCCCCc1cc(O)cc(O)c1C(=O)O,Active,Active,Active,Active,Active,Active,Active,Active,Non-Toxic,Active,inactive,Active,Active,Active,Active,Active,Active,inactive,Active,Active,Activity (Enterococcus faecalis [20]): Dose-Dependent Effect; Activity (Enterococcus faecalis [21]): inactive; Activity (Staphylococcus aureus [22]): Active; Activity (Enterococcus faecalis [23]): Active; Activity (Staphylococcus aureus [24]): Active; Activity (Enterococcus faecalis [25]): Active; Activity (Staphylococcus aureus [26]): inactive; MBC (Enterococcus faecalis [27]): 4 µg/mL; Activity (Cell membrane [28]): Active; Activity (Enterococcus faecalis [29]): Active; Activity (Staphylococcus aureus [30]): inactive; MIC (Enterococcus faecalis [31]): 4 µg/mL; Activity (Cell membrane [32]): Active; Activity (Staphylococcus aureus [33]): Active; Activity (Enterococcus faecalis [34]): Active; Activity (Staphylococcus aureus [35]): Active
